According to the RepoRT retention time repository:
Each block holds one molecule with its values, some of them ahead of it.

Experiment: HILIC, Waters ACQUITY UPLC BEH Amide, 100 × 2.1 mm, 1.7 µm; A: water + 0.125% formic acid + 10 mM ammonium formate; B: 5% water + 95% acetonitrile + 0.125% formic acid + 10 mM ammonium formate; gradient (min/%B) 0/100 2/100 7.7/70 9.5/40 10.25/30 12.75/100 17/100
Settings: stereoisomer not certain

Compound: NCCS(=O)(=O)O [Taurine]
LC retention time: 7.85 min

Compound: CCN(CC)CCN1C(=O)CN=C(c2ccccc2F)c2cc(Cl)ccc21 [Flurazepam]
LC retention time: 2.41 min

Compound: CC1OC(OCC2OC(Oc3c(-c4ccc(O)c(O)c4)oc4cc(O)cc(O)c4c3=O)C(O)C(O)C2O)C(O)C(O)C1O (centres undefined) [Rutin]
LC retention time: 6.6 min

Compound: CC12CCC3c4ccc(O)cc4CCC3C1CCC2=O (centres undefined) [1,3,5(10)-Estratrien-3-ol-17-one]
LC retention time: 1.01 min

Compound: CC(=O)NC(CC(=O)O)C(=O)NC(CCC(=O)O)C(=O)O (centres undefined) [N-Acetyl-Asp-Glu]
LC retention time: 8.11 min

Compound: NCCc1c[nH]c2ccc(O)cc12 [Serotonin]
LC retention time: 1.44 min

Compound: CNNCc1ccc(C(=O)NC(C)C)cc1 [Procarbazine]
LC retention time: 4.61 min

Compound: CCOC(=O)c1cncn1C(C)c1ccccc1 (centres undefined) [Etomidate]
LC retention time: 0.98 min

Compound: NCCCNCCCCNCCCN [Spermine]
LC retention time: 7.24 min

Compound: NC(=O)Cc1c[nH]c2ccccc12 [Indole-3-acetamide]
LC retention time: 1.36 min

Compound: Cc1c(O)cccc1C(=O)NC(CSc1ccccc1)C(O)CN1CC2CCCCC2CC1C(=O)NC(C)(C)C (centres undefined) [Nelfinavir]
LC retention time: 1.55 min

Compound: Cc1ncc([N+](=O)[O-])n1CC(O)CCl (centres undefined) [Ornidazole]
LC retention time: 1.08 min

Compound: CCC(C(N)=O)N1CCCC1=O (centres undefined) [Levetiracetam]
LC retention time: 1.45 min

Compound: CCOC(=O)N1CCC(=C2c3ccc(Cl)cc3CCc3cccnc32)CC1 [Loratadine]
LC retention time: 1.11 min

Compound: C[N+](C)(C)CCOP(=O)([O-])OCC(O)CO (centres undefined) [Glycerophosphocholine]
LC retention time: 8.67 min

Compound: NC(=O)CC(N)C(=O)O (centres undefined) [Asparagine]
LC retention time: 8.81 min

Compound: CCCCCC=CCC=CCC=CCC=CCCCC(=O)NCCc1ccc(O)c(O)c1 [Arachidonyl dopamine]
LC retention time: 1.14 min

Compound: CN1CCC23c4c5ccc(O)c4OC2C(=O)CCC3(O)C1C5 (centres undefined) [Oxymorphone]
LC retention time: 5.5 min

Compound: CC(NC(=O)C(N)C(C)O)C(=O)O (centres undefined) [Thr-Ala]
LC retention time: 8.56 min

Compound: CN1C(=O)CN=C(c2ccccc2F)c2cc([N+](=O)[O-])ccc21 [Flunitrazepam]
LC retention time: 1.05 min

Compound: NCCc1ccc(O)cc1 [Tyramine]
LC retention time: 5.58 min

Compound: NCCC(=O)NC(Cc1cnc[nH]1)C(=O)O (centres undefined) [Carnosine]
LC retention time: 9.54 min

Compound: O=C(O)COCCN1CCN(C(c2ccccc2)c2ccc(Cl)cc2)CC1 (centres undefined) [Levocetirizine]
LC retention time: 2.9 min

Compound: CCC1(O)C(=O)OCc2c1cc1n(c2=O)Cc2cc3c(CN(C)C)c(O)ccc3nc2-1 (centres undefined) [Topotecan]
LC retention time: 5.72 min

Compound: O=C(C=CC=Cc1ccc2c(c1)OCO2)N1CCCCC1 [Piperine]
LC retention time: 1.1 min

Compound: O=C(OC1CC2CC3CC(C1)N2CC3=O)c1c[nH]c2ccccc12 (centres undefined) [Dolasetron]
LC retention time: 1.9 min

Compound: CCS(=O)(=O)CCn1c([N+](=O)[O-])cnc1C [Tinidazole]
LC retention time: 1.04 min

Compound: NC(Cc1cnc[nH]1)C(=O)O (centres undefined) [Histidine]
LC retention time: 9.48 min

Compound: CSCCC(=O)C(=O)O [alpha-Keto-gamma-(methylthio)butyric acid]
LC retention time: 0.92 min

Compound: O=C(OC1C(Oc2ccccc2COC(=O)C2(O)C=CCCC2=O)OC(CO)C(O)C1O)c1ccccc1 (centres undefined) [Tremulacin]
LC retention time: 1.51 min

Compound: Cc1nc2n(c(=O)c1CCN1CCC(c3noc4cc(F)ccc34)CC1)CCCC2 [Risperidone]
LC retention time: 3.52 min

Compound: NC(=O)Cc1ccccc1 [2-Phenylacetamide]
LC retention time: 1.26 min

Compound: Cn1cc(C2OC(CO)C(O)C2O)c(=O)[nH]c1=O (centres undefined) [1-Methylpseudouridine]
LC retention time: 4.99 min

Compound: CC(=O)NO [Acetohydroxamic acid]
LC retention time: 2.94 min

Compound: O=c1ncc(F)c[nH]1 [5-Fluro-2-pyrimidone]
LC retention time: 1.77 min

Compound: NC(Cn1cccn1)C(=O)O (centres undefined) [3-(1-Pyrazolyl)-alanine]
LC retention time: 7.54 min

Compound: CC(=O)OC12COC1CC(O)C1(C)C(=O)C(O)C3=C(C)C(OC(=O)C(O)C(NC(=O)OC(C)(C)C)c4ccccc4)CC(O)(C(OC(=O)c4ccccc4)C21)C3(C)C (centres undefined) [Docetaxel]
LC retention time: 1.34 min

Compound: NC(=O)NC(N)=O [Biuret]
LC retention time: 2.73 min

Compound: Cn1c(N)nc2c(ncn2C2OC(CO)C(O)C2O)c1=O (centres undefined) [1-Methylguanosine]
LC retention time: 5.84 min

Compound: COC1C(CO)OC(n2cnc3c(=O)[nH]c(N)nc32)C1O (centres undefined) [3'-O-Methylguanosine]
LC retention time: 5.8 min

Compound: CC1=C2C3OC(=O)C(C)C3CCC2(C)C=CC1=O (stereo not drawn) [alpha-Santonin]
LC retention time: 1.07 min

Compound: O=C1C2CCCCC2C(=O)N1CCCCN1CCN(c2nsc3ccccc23)CC1 (centres undefined) [Perospirone]
LC retention time: 2.14 min

Compound: CC(=O)Nc1ccn(C2OC(CO)C(O)C2O)c(=O)n1 (centres undefined) [N-Acetylcytidine]
LC retention time: 5.08 min

Compound: CN=C1CN(O)C(c2ccccc2)=c2cc(Cl)ccc2=N1 [Chlordiazepoxide]
LC retention time: 1.35 min

Compound: CN1C(=O)C(O)N=C(c2ccccc2)c2cc(Cl)ccc21 (centres undefined) [Temazepam]
LC retention time: 1.15 min

Compound: COc1ccc(OC)c(C(O)C(C)N)c1 (centres undefined) [Methoxamine]
LC retention time: 4.75 min

Compound: CC(C)CCCC(C)C1CCC2C3CC=C4CC(OC(=O)NCCN(C)C)CCC4(C)C3CCC12C (stereo not drawn) [3-beta-Cholest-5-en-3-yl [2-(dimethylamino)ethyl]carbamate]
LC retention time: 2.34 min

Compound: O=c1cc(-c2ccc(O)cc2)oc2c(C3OC(CO)C(O)C(O)C3O)c(O)cc(O)c12 (centres undefined) [Vitexin]
LC retention time: 5.33 min

Compound: COc1cc(-c2[o+]c3cc(O)cc(O)c3cc2OC2OC(CO)C(O)C(O)C2O)cc(O)c1O (centres undefined) [Petunidin-3-glucoside]
LC retention time: 4.47 min

Compound: Cc1ncc(CO)c(C=O)c1O [Pyridoxal]
LC retention time: 2.18 min

Compound: COC1C(O)C(CO)OC1n1cc(C)c(N)nc1=O (centres undefined) [2'-O-Methyl-5-methylcytidine]
LC retention time: 4.93 min

Compound: CCCNC1CCc2nc(N)sc2C1 (centres undefined) [Pramipexole]
LC retention time: 5.7 min

Compound: O=CC=Cc1ccccc1 [Cinnamaldehyde]
LC retention time: 9.18 min

Continued, values first:

LC retention time: 6.9 min
Compound: Nc1[nH]c(=O)ncc1CO [5-Hydroxymethylcytosine]

LC retention time: 1.25 min
Compound: Nc1nc(N)nc(-c2cc(Cl)ccc2Cl)n1 [Irsogladine]

LC retention time: 1.81 min
Compound: CC(C)c1ccc2oc3nc(N)c(C(=O)O)cc3c(=O)c2c1 [Amlexanox]

LC retention time: 7.19 min
Compound: CC(=O)OC(CC(=O)[O-])C[N+](C)(C)C (centres undefined) [Acetylcarnitine]

LC retention time: 9.48 min
Compound: Nc1ccn(C2OC(COP(=O)(O)O)C(O)C2O)c(=O)n1 (centres undefined) [Cytidine-5'-monophosphate]

LC retention time: 1.12 min
Compound: CC1CC2C3CC(F)C4=CC(=O)C(Cl)=CC4(C)C3(F)C(O)CC2(C)C1(O)C(=O)CO (centres undefined) [Halometasone]

LC retention time: 1.29 min
Compound: CN(C)C=O [N,N-Dimethylformamide]

LC retention time: 1.3 min
Compound: COc1ccc(C(=O)O)cc1 [P-Anisic acid]

LC retention time: 6.83 min
Compound: CC(C)C(N)C(=O)OCCOCn1cnc2c(=O)[nH]c(N)nc21 (centres undefined) [Valaciclovir]

LC retention time: 4.53 min
Compound: c1c[nH]cn1 [Imidazole]

LC retention time: 7.66 min
Compound: CC(C)C(NC(=O)C(N)CCC(=O)O)C(=O)NC(Cc1ccccc1)C(=O)O (stereo not drawn) [Glu-Val-Phe]

LC retention time: 5.76 min
Compound: CCC1(O)CC2CN(CCc3c([nH]c4ccccc34)C(C(=O)OC)(c3cc4c(cc3OC)N(C)C3C(O)(C(N)=O)C(O)C5(CC)C=CCN6CCC43C65)C2)C1 (centres undefined) [Vindesine]

LC retention time: 8.88 min
Compound: Nc1ncnc2c1ncn2C1OC(CO)C(OP(=O)(O)O)C1O (centres undefined) [Adenosine-3-monophosphate]

LC retention time: 1.88 min
Compound: CCc1nn(CCCN2CCN(c3cccc(Cl)c3)CC2)c(=O)n1CCOc1ccccc1 [Nefazodone]

LC retention time: 8.75 min
Compound: OCC1OC(OC2C(CO)OC(O)C(O)C2O)C(O)C(O)C1O (centres undefined) [Maltose]

LC retention time: 7.92 min
Compound: Nc1nc2c(c(=O)[nH]1)N(C=O)C(CNc1ccc(C(=O)NC(CCC(=O)O)C(=O)O)cc1)CN2 (centres undefined) [Folinic acid]

LC retention time: 2.88 min
Compound: O=C(O)CNC(=O)Cc1ccccc1 [Phenylacetylglycine]

LC retention time: 3.23 min
Compound: CSCCC(NC(C)=O)C(=O)O (centres undefined) [N-Acetylmethionine]

LC retention time: 1.09 min
Compound: CC1=NS(=O)(=O)c2cc(Cl)ccc2N1 [Diazoxide]

LC retention time: 1.37 min
Compound: CC(=O)Nc1ccc(O)cc1 [Acetaminophen]

LC retention time: 8.6 min
Compound: O=C(O)C1CC(O)CN1C(=O)C1CCCN1 (centres undefined) [Proline-hydroxyproline]

LC retention time: 1.47 min
Compound: OCC1OC(n2cnc3c(NC4CCCC4)nc(Cl)nc32)C(O)C1O (centres undefined) [2-Chloro-N6-cyclopentyladenosine]

LC retention time: 1.77 min
Compound: CC(C)C(=O)O [Isobutyric acid]

LC retention time: 5.77 min
Compound: O=C1CCCCC1=O [1,2-Cyclohexanedione]

LC retention time: 1.43 min
Compound: CC(=O)NCCc1c[nH]c2ccc(O)cc12 [N-Acetyl-5-hydroxytryptamine]

LC retention time: 5.9 min
Compound: Nc1ccnc(=O)[nH]1 [Cytosine]

LC retention time: 1.32 min
Compound: Cc1occc(=O)c1O [Maltol]

LC retention time: 2.66 min
Compound: CNCCCC12CCC(c3ccccc31)c1ccccc12 [Maprotiline]

LC retention time: 6.98 min
Compound: Nc1ccccc1C(=O)CC(N)C(=O)O (centres undefined) [Kynurenine]

LC retention time: 0.98 min
Compound: CCC(=O)NS(=O)(=O)c1ccc(-c2c(-c3ccccc3)noc2C)cc1 [Parecoxib]

LC retention time: 0.98 min
Compound: N#Cc1ccc(C(c2ccc(C#N)cc2)n2cncn2)cc1 [Letrozol]

LC retention time: 0.93 min
Compound: CCN(CC)C(=S)SSC(=S)N(CC)CC [Disulfiram]

LC retention time: 7.19 min
Compound: OCC1OC(OCC2OC(O)C(O)C(O)C2O)C(O)C(O)C1O (centres undefined) [Isomaltose]

LC retention time: 5.18 min
Compound: CNC(=C[N+](=O)[O-])NCCSCc1ccc(CN(C)C)o1 [Ranitidine]

LC retention time: 8.62 min
Compound: NCC(=O)N1CCCC1C(=O)O (centres undefined) [Gly-Pro]

LC retention time: 1.73 min
Compound: O=c1ccn(C2CCC(CO)O2)c(=O)[nH]1 (centres undefined) [2,3-Dideoxyuridine]
